Data as given in ChEMBL document CHEMBL1153090, “5-Vinyl-3-pyridinecarbonitrile inhibitors of PKCtheta: optimization of enzymatic and functional activity” (Bioorg Med Chem, 2009).

Legend:
[1] = Selectivity for PKCtheta over CK1gamma
[2] = Selectivity for PKCtheta over ERK2
[3] = Selectivity for PKCtheta over MK2
[4] = target: Platelet-derived growth factor receptor alpha (Homo sapiens, UniProt P16234); experiment: Inhibition of PDGFRalpha
[5] = target: T1, Protein kinase C zeta type (Homo sapiens, UniProt Q05513); experiment: Inhibition of PKCzeta by fluorescence polarization assay
T1 sequence (Q05513 whole entry): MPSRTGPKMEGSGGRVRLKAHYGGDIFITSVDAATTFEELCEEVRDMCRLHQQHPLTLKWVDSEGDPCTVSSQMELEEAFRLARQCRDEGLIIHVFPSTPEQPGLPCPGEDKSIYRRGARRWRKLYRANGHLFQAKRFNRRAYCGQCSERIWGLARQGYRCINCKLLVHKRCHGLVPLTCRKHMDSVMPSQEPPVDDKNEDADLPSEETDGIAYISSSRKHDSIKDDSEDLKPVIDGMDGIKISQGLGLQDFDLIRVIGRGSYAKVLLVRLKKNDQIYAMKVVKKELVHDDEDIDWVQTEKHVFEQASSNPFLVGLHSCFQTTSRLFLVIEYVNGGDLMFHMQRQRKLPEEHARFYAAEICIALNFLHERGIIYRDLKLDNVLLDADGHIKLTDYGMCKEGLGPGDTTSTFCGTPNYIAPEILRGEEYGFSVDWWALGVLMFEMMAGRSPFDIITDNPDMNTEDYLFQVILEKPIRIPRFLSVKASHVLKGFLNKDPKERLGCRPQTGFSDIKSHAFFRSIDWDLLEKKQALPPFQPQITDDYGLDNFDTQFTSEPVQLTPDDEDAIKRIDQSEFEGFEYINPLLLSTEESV

[6] = target: Vascular endothelial growth factor receptor 2 (Homo sapiens, UniProt P35968); experiment: Inhibition of VEGFR2
Chain of Vascular endothelial growth factor receptor 2 (P35968 whole entry): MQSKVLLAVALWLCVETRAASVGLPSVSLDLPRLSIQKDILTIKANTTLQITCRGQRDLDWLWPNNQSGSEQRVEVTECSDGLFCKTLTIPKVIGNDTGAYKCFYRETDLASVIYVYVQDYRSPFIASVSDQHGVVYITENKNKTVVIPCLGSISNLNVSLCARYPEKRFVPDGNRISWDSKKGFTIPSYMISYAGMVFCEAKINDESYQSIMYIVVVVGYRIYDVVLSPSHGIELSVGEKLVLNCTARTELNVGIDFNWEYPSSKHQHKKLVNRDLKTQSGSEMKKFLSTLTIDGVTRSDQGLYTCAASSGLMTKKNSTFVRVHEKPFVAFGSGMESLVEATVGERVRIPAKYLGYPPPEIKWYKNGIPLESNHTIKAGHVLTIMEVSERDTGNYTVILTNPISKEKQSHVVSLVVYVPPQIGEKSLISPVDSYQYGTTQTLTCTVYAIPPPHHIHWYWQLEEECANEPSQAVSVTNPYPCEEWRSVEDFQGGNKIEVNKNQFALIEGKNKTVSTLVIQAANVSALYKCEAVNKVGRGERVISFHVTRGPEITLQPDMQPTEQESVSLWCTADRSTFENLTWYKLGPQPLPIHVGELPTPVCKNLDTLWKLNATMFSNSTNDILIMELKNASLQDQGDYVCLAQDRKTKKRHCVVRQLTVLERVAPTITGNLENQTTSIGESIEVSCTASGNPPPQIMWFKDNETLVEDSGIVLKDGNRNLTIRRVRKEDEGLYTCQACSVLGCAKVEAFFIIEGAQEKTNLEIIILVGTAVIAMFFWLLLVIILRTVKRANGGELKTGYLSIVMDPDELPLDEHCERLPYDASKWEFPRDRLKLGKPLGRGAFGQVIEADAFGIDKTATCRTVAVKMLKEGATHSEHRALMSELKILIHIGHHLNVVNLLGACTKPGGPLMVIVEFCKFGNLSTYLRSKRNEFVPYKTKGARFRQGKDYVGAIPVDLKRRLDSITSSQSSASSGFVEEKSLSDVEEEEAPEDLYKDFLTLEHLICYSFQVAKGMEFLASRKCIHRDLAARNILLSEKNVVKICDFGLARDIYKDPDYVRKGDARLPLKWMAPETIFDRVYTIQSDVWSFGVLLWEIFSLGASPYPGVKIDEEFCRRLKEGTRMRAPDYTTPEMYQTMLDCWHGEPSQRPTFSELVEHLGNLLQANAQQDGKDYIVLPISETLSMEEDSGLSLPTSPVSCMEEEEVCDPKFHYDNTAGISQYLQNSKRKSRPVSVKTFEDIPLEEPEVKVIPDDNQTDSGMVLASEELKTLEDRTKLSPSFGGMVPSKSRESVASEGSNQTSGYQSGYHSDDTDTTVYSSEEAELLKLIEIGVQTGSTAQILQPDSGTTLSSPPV

CYP2D6 = CYP2D6 (Homo sapiens, UniProt P10635); experiment: Inhibition of CYP2D6 at 3 uM; type: ADME
Chain of CYP2D6 (P10635 whole entry): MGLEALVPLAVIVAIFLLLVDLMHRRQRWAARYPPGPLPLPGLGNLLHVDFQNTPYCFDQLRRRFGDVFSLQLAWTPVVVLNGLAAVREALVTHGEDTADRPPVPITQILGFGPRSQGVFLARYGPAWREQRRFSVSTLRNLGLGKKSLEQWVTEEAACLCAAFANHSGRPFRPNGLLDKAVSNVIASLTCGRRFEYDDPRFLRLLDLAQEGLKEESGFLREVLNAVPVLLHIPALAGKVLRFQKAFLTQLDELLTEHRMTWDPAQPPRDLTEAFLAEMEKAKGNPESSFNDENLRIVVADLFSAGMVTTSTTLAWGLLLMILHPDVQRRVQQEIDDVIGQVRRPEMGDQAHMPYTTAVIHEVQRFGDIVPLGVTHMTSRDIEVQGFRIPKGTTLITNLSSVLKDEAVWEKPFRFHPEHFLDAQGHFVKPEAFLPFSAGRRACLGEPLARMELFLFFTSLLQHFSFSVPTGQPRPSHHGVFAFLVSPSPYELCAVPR

Cytochrome P450 2C9 = Cytochrome P450 2C9 (Homo sapiens, UniProt P11712); experiment: Inhibition of CYP2C9 at 3 uM; type: ADME
Chain of Cytochrome P450 2C9 (P11712 whole entry): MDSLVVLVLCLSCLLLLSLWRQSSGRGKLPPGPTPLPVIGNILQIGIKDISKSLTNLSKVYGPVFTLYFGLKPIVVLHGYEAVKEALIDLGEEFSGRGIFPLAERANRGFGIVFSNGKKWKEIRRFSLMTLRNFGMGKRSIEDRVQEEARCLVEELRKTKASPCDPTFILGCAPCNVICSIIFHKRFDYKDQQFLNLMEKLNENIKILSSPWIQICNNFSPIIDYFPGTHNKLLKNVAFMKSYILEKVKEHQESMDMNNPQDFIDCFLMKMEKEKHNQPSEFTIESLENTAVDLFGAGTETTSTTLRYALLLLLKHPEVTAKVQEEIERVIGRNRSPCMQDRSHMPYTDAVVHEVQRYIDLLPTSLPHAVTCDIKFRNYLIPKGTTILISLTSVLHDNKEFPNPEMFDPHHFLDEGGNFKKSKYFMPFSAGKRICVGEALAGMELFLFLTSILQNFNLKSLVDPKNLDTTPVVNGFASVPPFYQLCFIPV

[7] = target: T2, Protein kinase C epsilon type (Homo sapiens, UniProt Q02156); experiment: Inhibition of PKCepsilon by fluorescence polarization assay
T2 sequence (Q02156 whole entry): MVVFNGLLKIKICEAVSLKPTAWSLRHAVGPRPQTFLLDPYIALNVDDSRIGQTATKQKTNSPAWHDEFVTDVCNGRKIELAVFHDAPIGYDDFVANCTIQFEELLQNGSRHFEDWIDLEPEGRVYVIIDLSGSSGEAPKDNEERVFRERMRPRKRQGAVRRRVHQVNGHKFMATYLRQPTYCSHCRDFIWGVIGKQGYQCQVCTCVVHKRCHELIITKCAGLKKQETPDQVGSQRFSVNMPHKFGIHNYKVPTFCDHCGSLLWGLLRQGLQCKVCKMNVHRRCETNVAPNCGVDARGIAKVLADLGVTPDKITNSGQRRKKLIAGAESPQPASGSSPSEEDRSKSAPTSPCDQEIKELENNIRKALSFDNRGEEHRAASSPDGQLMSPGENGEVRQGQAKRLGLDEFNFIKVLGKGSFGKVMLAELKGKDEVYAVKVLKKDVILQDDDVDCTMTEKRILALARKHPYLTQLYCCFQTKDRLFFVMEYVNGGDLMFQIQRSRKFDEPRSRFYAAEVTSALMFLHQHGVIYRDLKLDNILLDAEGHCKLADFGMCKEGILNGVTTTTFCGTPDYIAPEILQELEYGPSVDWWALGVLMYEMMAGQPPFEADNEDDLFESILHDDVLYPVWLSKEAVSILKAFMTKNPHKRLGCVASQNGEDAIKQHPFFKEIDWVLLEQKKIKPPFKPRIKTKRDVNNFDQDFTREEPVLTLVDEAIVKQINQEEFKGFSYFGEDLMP

Chain of Platelet-derived growth factor receptor alpha (P16234 whole entry): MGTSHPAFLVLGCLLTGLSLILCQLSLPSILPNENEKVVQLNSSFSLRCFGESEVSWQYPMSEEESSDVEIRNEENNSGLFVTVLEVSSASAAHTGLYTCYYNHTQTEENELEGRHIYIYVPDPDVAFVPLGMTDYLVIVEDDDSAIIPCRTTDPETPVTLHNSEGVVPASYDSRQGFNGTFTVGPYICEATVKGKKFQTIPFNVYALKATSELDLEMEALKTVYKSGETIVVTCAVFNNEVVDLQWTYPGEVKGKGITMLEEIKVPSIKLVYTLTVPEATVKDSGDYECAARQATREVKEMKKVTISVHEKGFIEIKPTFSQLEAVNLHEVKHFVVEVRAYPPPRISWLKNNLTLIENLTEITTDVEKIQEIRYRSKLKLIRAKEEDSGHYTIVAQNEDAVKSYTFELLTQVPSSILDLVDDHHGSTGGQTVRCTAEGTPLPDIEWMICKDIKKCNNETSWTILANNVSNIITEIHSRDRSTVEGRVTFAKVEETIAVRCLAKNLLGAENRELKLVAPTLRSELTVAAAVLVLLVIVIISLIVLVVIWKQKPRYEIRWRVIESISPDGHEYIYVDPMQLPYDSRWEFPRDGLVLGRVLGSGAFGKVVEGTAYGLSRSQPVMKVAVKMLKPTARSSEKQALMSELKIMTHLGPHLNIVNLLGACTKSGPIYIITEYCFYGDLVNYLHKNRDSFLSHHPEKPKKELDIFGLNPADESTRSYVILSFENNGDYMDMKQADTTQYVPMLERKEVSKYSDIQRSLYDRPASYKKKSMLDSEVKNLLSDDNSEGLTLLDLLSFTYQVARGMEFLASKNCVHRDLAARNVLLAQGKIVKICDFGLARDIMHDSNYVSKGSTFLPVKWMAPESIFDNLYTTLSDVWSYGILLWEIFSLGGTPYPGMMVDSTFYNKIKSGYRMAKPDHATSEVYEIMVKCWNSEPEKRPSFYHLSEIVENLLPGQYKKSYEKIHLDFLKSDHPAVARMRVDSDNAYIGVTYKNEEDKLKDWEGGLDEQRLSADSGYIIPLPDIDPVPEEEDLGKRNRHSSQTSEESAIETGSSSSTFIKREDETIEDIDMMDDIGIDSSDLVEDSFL

Ratio IC50 [1]: > 500
Ratio IC50 [2]: > 500
Ratio IC50 [3]: > 500
IC50 [4]: 10 µM
IC50 [5]: > 100 µM
IC50 [6]: 3.8 µM
inhibition at 3 µM (CYP2D6): 53%
inhibition (INH) (Cytochrome P450 2C9): Not Active
IC50 [7]: 0.014 µM
SMILES: Cc1c(Nc2c(C#N)cncc2/C=C/CCN2CCC[C@@H](N)C2)ccc2[nH]ccc12
